target: T1, human ferroportin (Homo sapiens, UniProt Q9NP59); assay: ferroportin internalization assay (inhibition of hepcidin-induced internalization of Fpn); assay type: cell-based; conditions: MDCK-FPN-HaloTag cells, 100 nM hepcidin, overnight incubation; concentration range from 0.04 to 40 μM
T1 construct: expressed in transfected cells
T1 sequence (Q9NP59 1-571): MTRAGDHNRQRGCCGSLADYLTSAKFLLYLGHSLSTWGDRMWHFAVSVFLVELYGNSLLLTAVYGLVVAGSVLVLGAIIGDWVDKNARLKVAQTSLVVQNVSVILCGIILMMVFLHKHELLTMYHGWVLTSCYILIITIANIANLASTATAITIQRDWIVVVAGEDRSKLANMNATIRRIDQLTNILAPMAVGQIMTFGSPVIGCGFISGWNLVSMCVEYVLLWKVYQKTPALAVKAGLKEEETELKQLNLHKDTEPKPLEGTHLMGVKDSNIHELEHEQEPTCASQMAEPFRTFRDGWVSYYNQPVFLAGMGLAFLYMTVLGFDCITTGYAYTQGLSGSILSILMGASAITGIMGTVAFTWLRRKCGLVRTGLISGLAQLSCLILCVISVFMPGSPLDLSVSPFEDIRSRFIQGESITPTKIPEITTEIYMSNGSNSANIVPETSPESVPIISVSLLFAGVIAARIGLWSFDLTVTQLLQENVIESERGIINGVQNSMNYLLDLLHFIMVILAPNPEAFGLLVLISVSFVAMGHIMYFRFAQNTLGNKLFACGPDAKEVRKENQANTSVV
Experimental: The hepcidin-antagonistic action of the sulfonaminoquinoline compounds of the present invention was determined by means of the “ferroportin internalization assay” described in the following.
Organic compounds of low molecular weight which counteract the biological actions of hepcidin on its receptor, the iron exporter ferroportin (Fpn), were identified on the basis of their ability to inhibit hepcidin-induced internalization of Fpn in living cells. For this purpose, a stable cell line (Madin-Darby canine kidney, MDCK) was produced which constitutively expresses human ferroportin fused recombinantly at its C terminus with a fluorescent reporter protein (HaloTag®, Promega Corp.). The internalization of Fpn was monitored by labelling these cells with fluorescent ligands (HaloTag®-TMR, tetramethylrhodamine) which join covalently on to the HaloTag reporter gene fused with the Fpn. […] Optimized image analysis algorithms were used to ascertain the cell surface and to quantify the corresponding membrane fluorescence associated with the Fpn-HaloTag fusion protein. This assay allows a quantitative image-based analysis in order to quickly evaluate compounds which can block hepcidin-induced internalization of Fpn. This assay is a direct in vitro pendant of the in vivo action mechanism proposed for medicament candidates and is therefore suitable as an initial assay with a high throughput for identifying compounds which counteract the action of hepcidin on its receptor ferroportin.
• 7,500 cells per well (MDCK-FPN-HaloTag) were transinoculated in 50 μl of DMEM medium (Dulbeccos Modified Eagle Medium with 10% foetal bovine serum (FBS), which contained 1% penicillin, 1% streptomycin and 450 μg/ml of G-418) in microtitre plates with 384 wells (384 Cell carrier plates, Perkin Elmer, cat. no. 6007430), followed by incubation overnight at 37° C./5% CO2. • The volume of the medium was reduced to 10 μl, and 10 μl of 5 μM HaloTag-TMR ligands (Promega, cat. no. G 8251) were added in DMEM medium in order to stain the Fpn-HaloTag fusion protein. • 15 min incubation at 37° C./5% CO2 • The HaloTag-TMR ligand was removed and the cells were washed with fresh DMEM medium and the volume was reduced to 20 μl of DMEM medium. • 3 μl per well of a solution of the test compound (dissolved DMSO) were added ([…]). • 7 μl of […] hepcidin (Peptides International, cat. no. PLP-4392-s, 100 μM stock solution diluted in water in DMEM medium) were added per well up to a final hepcidin concentration of 100 nM. • The cells were incubated overnight at 37° C./5% CO2. • The cells were fixed by adding paraformaldehyde (PFA, Electron Microscopy Sciences, cat. no. 15710-S) directly to the cells up to a final concentration of 4%, followed by incubation at room temperature for 15-20 minutes. • The PFA solution was removed and the cells were washed with PBS (phosphate-buffered saline solution), in each case 30 μl remaining in the plate. • 20 μl of Draq5 (Biostatus, cat. no. DR 51000) were added up to a final concentration of 2.5 μM in order to stain the cell nuclei, and the plates were sealed with a foil plate seal. • The plates were analysed with the Opera Plate Imager (Opera Confocal Plate Imager, Perkin Elmer) with 7 images per well; 440 ms exposure time per image, […] focal point height.

IC50 [nM] | SMILES
1390 | O=S1(=O)Nc2c(cc(F)c3cccnc23)-c2ccccc21 [Example 324, 12-Fluoro-5H-6-thia-4,5-diaza-chrysene 6,6-dioxide]
1500 | Cc1cc(F)ccc1C1c2ccc3cccnc3c2NS(=O)(=O)N1C (stereo not drawn) [Example 395, 1-(4-Fluoro-2-methyl-phenyl)-2-methyl-1,4-dihydro-2H-3-thia-2,4,5-triaza-phenanthrene 3,3-dioxide]
2110 | COc1ccc2c(c1)S(=O)(=O)Nc1c-2ccc2cccnc12 [Example 326, 8-Methoxy-5H-6-thia-4,5-diaza-chrysene 6,6-dioxide]
2760 | CN(C)CCOc1cc2c(c3ncccc13)NS(=O)(=O)c1ccccc1-2 [Example 562, [2-(6,6-Dioxo-5,6-dihydro-6λ*6*-thia-4,5-diaza-chrysen-12-yloxy)-ethyl]-dimethyl-amine]
620 | O=S1(=O)Nc2c(cc(Cl)c3cccnc23)-c2cc(NCCN3CCOCC3)ccc21 [Example 511, (12-Chloro-6,6-dioxo-5,6-dihydro-6λ*6*-thia-4,5-diaza-chrysen-9-yl)-(2-morpholin-4-yl-ethyl)-amine]
2190 | CCN(CC)c1ccc2c(c1)-c1cc(Cl)c3cccnc3c1NS2(=O)=O [Example 505, (12-Chloro-6,6-dioxo-5,6-dihydro-6λ*6*-thia-4,5-diaza-chrysen-9-yl)-diethyl-amine]
21000 | CN(C)C(=O)c1ccnc2c3c(ccc12)-c1ccccc1S(=O)(=O)N3 [Example 541, 6,6-Dioxo-5,6-dihydro-6λ*6*-thia-4,5-diaza-chrysene-1-carboxylic acid dimethylamide]
22000 | O=S1(=O)Nc2c(cc(NCCN3CCOCC3)c3cccnc23)-c2ccccc21 [Example 547, (6,6-Dioxo-5,6-dihydro-6λ*6*-thia-4,5-diaza-chrysen-12-yl)-(2-morpholin-4-yl-ethyl)-amine]
6500 | CN1Cc2ccc3cccnc3c2NS1(=O)=O [Example 405, 2-Methyl-1,4-dihydro-2H-3-thia-2,4,5-triaza-phenanthrene 3,3-dioxide]
7460 | CN(C)CCNC(=O)c1cc(C2c3ccc4cccnc4c3NS(=O)(=O)N2C)ccc1F (stereo not drawn) [Example 429, N-(2-Dimethylamino-ethyl)-2-fluoro-5-(2-methyl-3,3-dioxo-1,2,3,4-tetrahydro-3λ*6*-thia-2,4,5-triaza-phenanthren-1-yl)-benzamide]
360 | Cc1ccc2c(c1)S(=O)(=O)Nc1c-2ccc2cccnc12 [Example 329, 8-Methyl-5H-6-thia-4,5-diaza-chrysene 6,6-dioxide]
1570 | CN1C(c2ccc(F)cn2)c2ccc3cccnc3c2NS1(=O)=O (stereo not drawn) [Example 388, 1-(5-Fluoro-pyridin-2-yl)-2-methyl-1,4-dihydro-2H-3-thia-2,4,5-triaza-phenanthrene 3,3-dioxide]
1980 | COCCNc1ccc2c(c1)-c1cc(Cl)c3cccnc3c1NS2(=O)=O [Example 507, (12-Chloro-6,6-dioxo-5,6-dihydro-6λ*6*-thia-4,5-diaza-chrysen-9-yl)-(2-methoxy-ethyl)-amine]
4770 | CNC(=O)c1ccnc2c3c(ccc12)-c1ccccc1S(=O)(=O)N3 [Example 542, 6,6-Dioxo-5,6-dihydro-6λ*6*-thia-4,5-diaza-chrysene-1-carboxylic acid methylamide]
3240 | Cc1cc2c(cc1F)-c1ccc3cccnc3c1NS2(=O)=O [Example 331, 9-Fluoro-8-methyl-5H-6-thia-4,5-diaza-chrysene 6,6-dioxide]
2740 | O=C(c1ccc2c(c1)-c1cc(Cl)c3cccnc3c1NS2(=O)=O)N1CCOCC1 [Example 527, (12-Chloro-6,6-dioxo-5,6-dihydro-6λ*6*-thia-4,5-diaza-chrysen-9-yl)-morpholin-4-yl-methanone]
4490 | CN1C(c2ccc(F)c(CN3CCNCC3)c2)c2ccc3cccnc3c2NS1(=O)=O (stereo not drawn) [Example 427, 1-(4-Fluoro-3-piperazin-1-ylmethyl-phenyl)-2-methyl-1,4-dihydro-2H-3-thia-2,4,5-triaza-phenanthrene 3,3-dioxide]
2340 | O=S1(=O)Nc2c(ccc3cccnc23)-c2ccc(C(F)(F)F)cc21 [Example 332, 8-Trifluoromethyl-5H-6-thia-4,5-diaza-chrysene 6,6-dioxide]
3530 | O=S1(=O)Nc2c(ccc3c(-n4cccn4)ccnc23)-c2ccccc21 [Example 494, 1-Pyrazol-1-yl-5H-6-thia-4,5-diaza-chrysene 6,6-dioxide]

Second part, the compound before the results:

SMILES | IC50 [nM]
O=S(=O)(Nc1cc(OC(F)(F)F)cc2cccnc12)c1ccccn1 [Example 235, Pyridine-2-sulfonic acid (6-trifluoromethoxy-quinolin-8-yl)-amide] | 1090
COc1cc2c(c3ncccc13)NS(=O)(=O)c1ccccc1-2 [Example 108, 12-Methoxy-5H-6-thia-4,5-diaza-chrysene 6,6-dioxide] | 990
O=S(=O)(Nc1ccc(Cl)c2cccnc12)c1cccnc1 [Example 60, Pyridine-3-sulfonic acid (5-chloro-quinolin-8-yl)-amide] | 1780
COc1cc(NS(=O)(=O)c2ccc(C)cc2N)c2ncccc2c1 [Example 80, 2-Amino-N-(6-methoxy-quinolin-8-yl)-4-methyl-benzenesulfonamide] | 585
N#Cc1cccc(S(=O)(=O)Nc2cccc3cccnc23)c1 [Example 16, 3-Cyano-N-quinolin-8-yl-benzenesulfonamide] | 413
O=S(=O)(Nc1cccc2cccnc12)c1c(F)cccc1F [Example 64, 2,6-Difluoro-N-quinolin-8-yl-benzenesulfonamide] | 1140
O=S(=O)(Nc1cccc2cccnc12)c1ccccc1Cl [Example 11, 2-Chloro-N-quinolin-8-yl-benzenesulfonamide] | 8000
O=S(=O)(Nc1cccc2cccnc12)c1ccccc1C(F)(F)F [Example 43, N-Quinolin-8-yl-2-trifluoromethyl-benzenesulfonamide] | 419
COc1cc(NS(=O)(=O)c2cccnc2)c2ncccc2c1 [Example 59, Pyridine-3-sulfonic acid (6-methoxy-quinolin-8-yl)-amide] | 2800
O=S(=O)(Nc1ccc(Cl)c2cccnc12)c1ccccc1 [Example 25, N-(5-Chloro-quinolin-8-yl)-benzenesulfonamide] | 1670
Nc1cc(C(F)(F)F)ccc1S(=O)(=O)Nc1cccc2cccnc12 [Example 35, 2-Amino-N-quinolin-8-yl-4-trifluoromethyl-benzenesulfonamide] | 760
O=S1(=O)Nc2c(ccc3cccnc23)-c2cc(F)ccc21 [Example 74, 9-Fluoro-5H-6-thia-4,5-diaza-chrysene 6,6-dioxide] | 1560
O=S(=O)(Nc1cc(F)cc2cccnc12)c1ccccc1 [Example 75, N-(6-Fluoro-quinolin-8-yl)-benzenesulfonamide] | 780
Cc1cnc2c(NS(=O)(=O)c3ccc(Cl)cc3F)cccc2c1 [Example 71, 4-Chloro-2-fluoro-N-(3-methyl-quinolin-8-yl)-benzenesulfonamide] | 1300
